Laboratory results: ChEMBL document CHEMBL6134844, “Development of Next-Generation Antimalarial Acridones with Radical Cure Potential” (J Med Chem, 2025)

Key:
[1] = system: Plasmodium falciparum; test: Antiplasmodial activity against asexual blood-stage (ABS) CQ-sensitive Plasmodium falciparum D6 infected in human erythrocytes assessed as reduction in fluorescence measured after 72 hrs by Malaria SYBR Green I-based Fluorescence (MSF) assay; format: functional, organism-based; conditions: D6, Erythrocyte
[2] = system: HepG2; test: Cytotoxicity against human HepG2 cells assessed as cell viability measured after 48 hrs by MTT assay; format: functional, cell-based; conditions: HepG2, 48 h
[3] = system: Plasmodium cynomolgi; test: (§1) Antiplasmodial activity against hypnozoite Plasmodium cynomolgi B strain infected in Macaca mulatta hepatocytes incubated with sporozoite containing salivary gland homogenate obtained from dissected Anopheles dirus mosquitoes (infected with Plasmodium cynomolgi B strain) treatment started on day 4 post infection and continued daily for 4 days into fresh changed media until day 8 assessed as Liver stage (LS) activity by measuring radical cure mode by immunofluorescent staining analysis; format: functional, organism-based; conditions: Hepatocyte
[4] = system: Plasmodium falciparum; test: Antiplasmodial activity against asexual blood-stage (ABS) MDR Plasmodium falciparum Dd2 infected in human erythrocytes assessed as reduction in fluorescence measured after 72 hrs by Malaria SYBR Green I-based Fluorescence (MSF) assay; format: functional, organism-based; conditions: Dd2, Erythrocyte
[5] = human, microsomes, 1 h
[6] = as §1, with “Selectivity index, ratio of CC50 for Macaca mulatta hepatocytes to IC50 for antiplasmodial” for “Antiplasmodial”, “prophylactic” for “radical cure”; format: toxicity, cell-based; conditions: rhesus monkey, read-out: Selectivity Index
[7] = as §1, with “Selectivity index, ratio of CC50 for Macaca mulatta hepatocytes to IC50 for antiplasmodial” for “Antiplasmodial”, “schizont” for “hypnozoite”, “prophylactic” for “radical cure”; format: toxicity, cell-based; conditions: rhesus monkey, read-out: Selectivity Index
[8] = mouse, microsomes, 1 h
[9] = Toxicity in CF1 mouse infected with asexual blood-stage (ABS) Plasmodium yoelii MRA-428 assessed as weight loss at 0.3 to 30 mg/kg, po treated 24 hrs post infection measured after 4 days; format: organism-based; conditions: in vivo, 96 h, dose 0.3-30 mg/kg, time 4 day
[10] = system: Plasmodium cynomolgi; test: as §1, with “prophylactic” for “radical cure”; format: functional, organism-based; conditions: Hepatocyte
[11] = Toxicity in CF1 mouse infected with asexual blood-stage (ABS) Plasmodium yoelii MRA-428 assessed as hunching at 0.3 to 30 mg/kg, po treated 24 hrs post infection measured after 4 days; format: organism-based; conditions: in vivo, 96 h, dose 0.3-30 mg/kg, time 4 day
[12] = system: Plasmodium cynomolgi; test: as §1, with “schizont” for “hypnozoite”; format: functional, organism-based; conditions: Hepatocyte
[13] = system: Plasmodium cynomolgi; test: as §1, with “schizont” for “hypnozoite”, “prophylactic” for “radical cure”; format: functional, organism-based; conditions: Hepatocyte
[14] = system: Hepatocyte; test: Cytotoxicity against Macaca mulatta hepatocytes assessed as cell viability measured after 48 hrs by MTT assay; format: toxicity, cell-based; conditions: rhesus monkey, 48 h
[15] = system: Plasmodium falciparum; test: Antiplasmodial activity against asexual blood-stage (ABS) ATV-resistant clinical isolate Plasmodium falciparum Tm90-C2B infected in human erythrocytes assessed as reduction in fluorescence measured after 72 hrs by Malaria SYBR Green I-based Fluorescence (MSF) assay; format: functional, organism-based; conditions: Erythrocyte
[16] = Toxicity in CF1 mouse infected with asexual blood-stage (ABS) Plasmodium yoelii MRA-428 assessed as ruffled hair at 0.3 to 30 mg/kg, po treated 24 hrs post infection measured after 4 days; format: organism-based; conditions: in vivo, 96 h, dose 0.3-30 mg/kg, time 4 day
[17] = Toxicity in CF1 mouse infected with asexual blood-stage (ABS) Plasmodium yoelii MRA-428 assessed as hyperactivity at 0.3 to 30 mg/kg, po treated 24 hrs post infection measured after 4 days; format: organism-based; conditions: in vivo, 96 h, dose 0.3-30 mg/kg, time 4 day
[18] = Toxicity in CF1 mouse infected with asexual blood-stage (ABS) Plasmodium yoelii MRA-428 assessed as lethargy at 0.3 to 30 mg/kg, po treated 24 hrs post infection measured after 4 days; format: organism-based; conditions: in vivo, 96 h, dose 0.3-30 mg/kg, time 4 day
[19] = as §1, with “Selectivity index, ratio of CC50 for Macaca mulatta hepatocytes to IC50 for antiplasmodial” for “Antiplasmodial”, “schizont” for “hypnozoite”; format: toxicity, cell-based; conditions: rhesus monkey, read-out: Selectivity Index
[20] = as §1, with “Selectivity index, ratio of CC50 for Macaca mulatta hepatocytes to IC50 for antiplasmodial” for “Antiplasmodial”; format: toxicity, cell-based; conditions: rhesus monkey, read-out: Selectivity Index

Compound | IC50 [1] [nM] | IC50 [2] [µM] | IC50 [3] [µM] | IC50 [4] [nM] | t1/2 [5] [min] | selectivity ratio at 96 h [6] | selectivity ratio at 96 h [7] | CLH [8] [µL/min/mg] | Activity [9] | IC50 [10] [µM] | Activity [11] | IC50 [12] [µM] | IC50 [13] [µM] | CC50 [14] [µM] | IC50 [15] [nM] | Activity [16] | Activity [17] | Activity [18] | selectivity ratio at 96 h [19] | selectivity ratio at 96 h [20]
O=c1c2c([nH]c3c(Oc4ccc(OC(F)(F)F)cc4)cccc13)CCCC2 | 57.5 | > 200 | > 20 | 83.8 | > 60 | > 1.53 | > 2.62 | 6.85 | Non-toxic | 13.1 | Non-toxic | 17.9 | 7.63 | > 20 | 219 | Non-toxic | Non-toxic | Non-toxic | > 1.12 | –
O=c1c2c([nH]c3cc(Oc4cccc(OC(F)(F)F)c4)ccc13)CCCC2 | 0.116 | > 200 | 7.99 | 0.537 | > 60 | 2.18 | 16.8 | 29.7 | Non-toxic | 4.64 | Non-toxic | 6.87 | 0.6 | 10.1 | 4.38 | Non-toxic | Non-toxic | Non-toxic | 1.47 | 1.25
O=c1c2c([nH]c3ccc(F)c(Oc4ccc(OC(F)(F)F)cc4)c13)CCCC2 | 1360 | – | 14 | > 2500 | – | > 2.73 | > 2.7 | 31.1 | Non-toxic | 7.32 | Non-toxic | > 20 | 7.4 | > 20 | > 2500 | Non-toxic | Non-toxic | Non-toxic | – | > 1.43
O=c1c2c([nH]c3cc(Oc4ccccc4OC(F)(F)F)ccc13)CCCC2 | 0.023 | > 200 | > 20 | 0.171 | – | > 2.59 | > 31.2 | 72.1 | Non-toxic | 7.72 | Non-toxic | > 20 | 0.64 | > 20 | 0.275 | Non-toxic | Non-toxic | Non-toxic | – | –
CCCCN(CCCC)CCCOc1ccc2c(=O)c3c([nH]c2c1)CCCC3 | 7.2 | > 200 | > 20 | 39.4 | – | – | > 4.06 | > 500 | Non-toxic | > 20 | Non-toxic | > 20 | 4.92 | > 20 | 59.7 | Non-toxic | Non-toxic | Non-toxic | – | –
CCN(CC)CCCOc1ccc2c(=O)c3c([nH]c2c1)CCCC3 | > 2500 | – | > 20 | > 2500 | > 60 | – | > 1.82 | > 500 | Non-toxic | > 20 | Non-toxic | > 20 | 11 | > 20 | > 2500 | Non-toxic | Non-toxic | Non-toxic | – | –
CCN(CC)CCOc1ccc2c(=O)c3c([nH]c2c1)CCCC3 | > 2500 | – | > 20 | > 2500 | > 60 | – | > 1.43 | > 500 | Non-toxic | > 20 | Non-toxic | > 20 | 14 | > 20 | > 2500 | Non-toxic | Non-toxic | Non-toxic | – | –
O=c1c2c([nH]c3cc(OC(F)(F)F)ccc13)CCCC2 | 52.4 | > 200 | > 20 | 84.7 | – | – | > 5.05 | 21.3 | Non-toxic | > 20 | Non-toxic | > 20 | 3.96 | > 20 | 58.6 | Non-toxic | Non-toxic | Non-toxic | – | –
O=c1c2c([nH]c3cccc(Oc4ccc(OC(F)(F)F)cc4)c13)CCCC2 | > 2500 | > 200 | 3.83 | > 2500 | – | 0.787 | 1.79 | 48 | Non-toxic | 7.62 | Non-toxic | 2.92 | 3.34 | 6 | > 2500 | Non-toxic | Non-toxic | Non-toxic | 2.05 | 1.57
O=c1c2c([nH]c3cc(Nc4ccc(OC(F)(F)F)cc4)ccc13)CCCC2 | 0.232 | > 200 | 1.29 | 1.85 | – | 1.66 | 8.62 | 56 | Non-toxic | 1.09 | Non-toxic | 1.4 | 0.21 | 1.81 | 2.79 | Non-toxic | Non-toxic | Non-toxic | 1.29 | 1.4
CCCN(CCC)CCCOc1ccc2c(=O)c3c([nH]c2c1)CCCC3 | 108 | > 200 | > 20 | 126 | – | – | > 3.75 | > 500 | Non-toxic | > 20 | Non-toxic | 14 | 5.33 | > 20 | 162 | Non-toxic | Non-toxic | Non-toxic | > 1.43 | –
O=c1c2c([nH]c3cc(OCc4ccc(OC(F)(F)F)cc4)ccc13)CCCC2 | 6.02 | > 200 | > 20 | 27.5 | – | – | > 5.52 | 31.9 | Non-toxic | > 20 | Non-toxic | > 20 | 3.62 | > 20 | 43.5 | Non-toxic | Non-toxic | Non-toxic | – | –
CCCN(CCC)CCOc1ccc2c(=O)c3c([nH]c2c1)CCCC3 | 24.5 | > 200 | > 20 | 64.3 | – | – | > 2.03 | 492 | Non-toxic | > 20 | Non-toxic | > 20 | 9.83 | > 20 | 46.1 | Non-toxic | Non-toxic | Non-toxic | – | –
